{"source": "patent US11286251B2", "about": "“Matrix metalloproteinase inhibitors and imaging agents, and methods using same” (Yale University, priority 2016, dated 2022)", "key": {"[1]": {"assay": "Partition coefficient between n-octanol and water or Tris buffer", "assay_type": "physicochemical", "conditions": "for logD: coligands Tricine-TPPTS", "experimental": "Matrix metalloproteinase-targeted imaging agents known in the art suffer from poor solubility of their precursors and have blood clearance times that make them ill-suited for practical application. The partition coefficient (Log D) values of ^99mTc-1 and ^99mTc-RP805 were determined based on their proportional distribution between n-octanol and water or Tris buffer at pH 7.4. […] Compared with ^99mTc-RP805 and its precursor, the increased hydrophilicity of ^99mTc-1 (and 1) can in one aspect be ascribed to the introduction of arginine residue."}, "[2]": {"assay": "Blood kinetics and biodistribution in C57BL/6J mice", "conditions": "mouse, in vivo; for blood pool activity: iv", "experimental": "Biodistribution at 2 h post-injection (p.i.) and blood clearance were evaluated in C57Bl/6J mice injected with 16±5 MBq of ^99mTc-1 (n=6) or ^99mTc-RP805 (n=6). In vivo targeting to aneurysm and specificity of ^99mTc-1 was evaluated in high-fat fed apolipoprotein E-deficient mice, 4 weeks after carotid aneurysm induction through peri-adventitial application of CaCl2. The animals were injected with 31±14 MBq of ^99mTc-1 with (n=3) or without (n=4) pre-injection of non-labeled 1."}, "[3]": {"test_system": "CaCl2-induced carotid aneurysm", "assay": "Quantitative autoradiography of carotid aneurysm, blocking study", "assay_type": "in vivo, apoE−/− mice", "conditions": "autoradiography at 2 h", "experimental": "Arterial aneurysm was induced by exposing the left common carotid artery of apolipoprotein E-deficient (apoE^−/−) mice to calcium chloride. Briefly, 4- to 6-wk-old female apoE^−/− mice (n=96; Jackson Laboratory) were fed high-cholesterol chow ad libitum. After 1 wk, the carotid arteries were exposed by blunt-end dissection under anesthesia. The left common carotid artery just below the carotid bifurcation was adventitially exposed to a 10% solution of CaCl2 for 20 min. The opposite carotid artery was exposed to normal saline and served as a control for imaging studies (Razavian, et al., 2010, J Nucl Med. 51(7):1107-15).\nFor autoradiography, the specimens were mounted on a board and placed in contact with to a reusable phosphor screen (MultiSensitive Phosphor Screen, PerkinElmer) along with standards of known activity. The screen was scanned in a phosphor imager system (Typhoon Trio, GE Healthcare Life Sciences) at a pixel size of 25×25 μm and images were analyzed using the Fiji software. Tracer uptake was quantified using a standard curve and expressed a % injected dose (ID)/pixel.\nThe tissues were placed on a phosphor screen (MultiSensitive Phosphor Screen, PerkinElmer) along with standards of known activity. […]"}, "[4]": {"test_system": "suprarenal abdominal aorta (AAA)", "assay": "microSPECT/CT imaging of AAA in angiotensin II-infused mice", "assay_type": "in vivo, apoE−/− mice", "experimental": "In addition, sixteen weeks-old male apoE^−/− (n=16) were infused with human angiotensin II (Ang II, 1000 ng/kg/min, Calbiochem), delivered by a subcutaneous osmotic minipump (Model 2004, Alzet) implanted under anesthesia (isoflurane 2%).\nAnimals were imaged using a dedicated high resolution small animal imaging system (X-SPECT, GammaMedica), using one mm low energy (for ^99mTc) pinhole collimators. The spatial resolution of this system for ^99mTc in tomographic images with a 1-mm pinhole collimator and 4 cm radius of rotation was 1.1 mm full-width half-maximum. Radiotracer (1 mCi for mice) was injected through an intravenous catheter. Anesthetized mice (with isoflurane) were placed in a fixed position under the camera. Three point sources of known activity (˜1 μCi) were placed in the field of view, but outside the body, to quantify tracer uptake and to verify the accuracy of image fusions. […]\nAfter completion of microSPECT images CT imaging was performed (energy: 75 kV/280 μA, matrix: 512×512) to identify anatomical structure. […] Images were analyzed using Xeleris Functional Imaging Workstation (General Electric, Waukesha, Wis.). […] Activities of each organ was expressed as % ID using the point sources. […]\nRNA was isolated from aortic tissue using GenElute Mammalian Total RNA Miniprep Kit (Sigma-Aldrich) and reverse-transcribed using QuantiTect Reverse Transcription Kit (Qiagen). […]"}, "[5]": {"assay": "Radiochemical stability in mouse blood by radio-HPLC", "assay_type": "in vitro ADME", "conditions": "in vitro incubation at 37° C. up to 5 hours", "experimental": "Tracers were incubated in blood (200 μL) with gentle agitation (Thermo mixer, 1000 rpm) at 37° C. for 4 h. At 0, 2, and 4 h time points, 40 μL of blood sample were collected and centrifuged at 4° C. (3000 rpm, 20 min). 10 μL of the supernatant (plasma) were collected and diluted in methanol (90 μL). The sample was then vortexed for 30 s at room temperature and centrifuged at 4° C. (3000 rpm, 15 min). 50 μL of the supernatant were concentrated, filtered and analysed by radioHPLC or LC-MS.\n(§1) Radiolabeling quality control was performed by reverse phase radio-HPLC analysis (HPLC system 2489, Waters) with a flow rate of 1 mL/min using an analytical column (JUPITER® 4 μm Proteo 90 Å, Phenomenex) with gradients of solvent A (0.16% ammonium formate in aqueous solution) and solvent B (0.16% ammonium formate in 90% acetonitrile). The HPLC gradients were programmed as follows: 10% B for 2 min, 10-70% B in 5 min, 5 min 70% B and 70-90% B in 5 min. In vitro and in vivo stability of the tracer were analyzed by radio-HPLC following in vitro incubation in mouse blood at 37° C. for up to 5 hours, and from urine collected at 2 hours after tracer injection, respectively."}, "Aqueous solubility": {"assay": "Aqueous solubility", "assay_type": "physicochemical"}, "[6]": {"assay": "In vivo radiochemical stability, radio-HPLC of urine", "set-up": "species or system C57BL/6J mouse", "conditions": "urine collected 2 hours after intravenous injection", "experimental": "as §1"}, "[7]": {"assay": "Stability in saline / radiolabeling media by RP-HPLC", "assay_type": "physicochemical", "conditions": "room temperature"}, "[8]": {"conditions": "all tissues evaluated, but not the bile; 2 h", "protocol": "To investigate biodistribution in apoE^−/− mice, animals at seven weeks after peri-adventitial application of CaCl2 or NaCl to carotid arteries were injected with 31±14 MBq (14±2 pg/kg) of ^99mTc-1, with (n=5) or without (n=6) pre-injection of an excess of the parent inhibitor 19 (23±8 ng/kg). Animals were kept under anesthesia for 60 min and blood samples were collected at various times post-injection. Tissue samples and body fluids were collected and weighed at 2 hours post-injection, and measured for their radioactivity by gamma-well counting (WIZARD2®, PerkinElmer). Data were expressed as percentage of injected dose (ID) per gram of tissue or mL of blood.\n^99mTc-1 binding to carotid aneurysm and specificity in vivo were evaluated in apoE^−/− mice at seven weeks after peri-adventitial application of CaCl2 to left carotid arteries."}}, "note": "Entries after “also recorded” stand apart in the source; their conditions may differ.", "data": [{"compound": "CC(C)C[C@H]1C(=O)N[C@H](C(=O)N[C@@H](CCCNC(=N)N)C(=O)NCCNC(=O)c2ccc(N[N]=[Tc]345([PH](c6cccc(S(=O)(=O)O)c6)(c6cccc(S(=O)(=O)O)c6)c6cccc(S(=O)(=O)O)c6)[O]CC(CO)(C[O]3)[N]4CC(=O)[O]5)nc2)Cc2ccc(cc2)OCCC[C@@H]1C(=O)NO", "note": "[^99mTc-1]", "values": [{"measurement": "logD", "setting": "[1]; n-octanol/Tris buffer, Octanol/Tris (pH = 7.4)", "value": "-4.4 ± 0.1"}, {"measurement": "logD", "setting": "[1]; n-octanol/water, Octanol/water", "value": "-4 ± 0.1"}, {"measurement": "logP", "setting": "[1]; n-octanol/water, read-out: Log P n-octanol/water", "value": "-4 ± 0.1"}, {"measurement": "hepatobiliary excretion: bile activity", "setting": "[2]; 2 h", "value": "1.5±0.3", "unit": "% ID/g"}, {"measurement": "tissue uptake in control aorta", "setting": "[2]; 2 h", "value": "6.0±1.4", "unit": "% ID/g"}, {"measurement": "blood pool activity", "setting": "[2]; 1 h", "value": "1.3±0.4", "unit": "% ID/mL"}, {"measurement": "blood pool activity", "setting": "[2]; 2 h", "value": "1.0±0.4", "unit": "% ID/mL"}, {"measurement": "decrease in aneurysm-to-aorta uptake ratio under blocking conditions", "setting": "[3]", "value": 1.8, "unit": "fold"}, {"measurement": "decrease in carotid aneurysm tracer uptake on pre-injection of excess parent pan-MMP inhibitor", "setting": "[3]; blocking vs no blocking", "value": 4.6, "unit": "fold"}, {"measurement": "left ventricle blood pool activity", "setting": "[4]; AAA group", "value": "0.14±0.10", "unit": "cpv/MBq"}, {"measurement": "left ventricle blood pool activity", "setting": "[4]; low remodeling group", "value": "0.12±0.08", "unit": "cpv/MBq"}, {"measurement": "radiochemical stability in mouse blood", "setting": "[5]", "value": "high radiochemical stability; also recorded: good stability; also recorded: single peak; also recorded: radiochemically stable"}, {"measurement": "water solubility (in words)", "setting": "Aqueous solubility", "value": "high water solubility"}, {"measurement": "in vivo radiochemical stability (urine)", "setting": "[6]", "value": "high radiochemical stability"}, {"measurement": "stability in saline", "setting": "[7]", "value": "good stability"}, {"measurement": "tissue uptake by gamma well counting on pre-injection of parent pan-MMP inhibitor", "setting": "[8]", "value": "significantly reduced"}]}]}
